Experimental data published in PubChem BioAssay AID1645848.
Values after ≈ are worked out from the molar mass of the structure shown.

Details: buffer; pH 7.4; 6.0 h; 150.0 µM

Row | SMILES | solubility kinetic [µg/mL]
1 | Cc1cc(N=Nc2ccc(S(=O)(=O)Nc3ccccn3)cc2)c(N)cc1O | 3.69 (≈ 9.63 µM)
2 | Cc1ccc(NC(=O)C(Cc2ccccc2)NS(=O)(=O)c2cccs2)cc1Cl (centres undefined) | < 1
3 | COc1cccc(CNc2ccc(S(=O)(=O)Nc3cccc(N4CCNCC4)c3)cc2)c1O | 51.1 (≈ 109 µM)
4 | Cc1ccc(NC(=O)c2cc(-c3ccc(C)o3)nc3ccccc23)nc1 | < 1
5 | CC(=O)c1c(C)[nH]c(C(=O)Nc2ccc(Cl)cc2)c1C | 1.96 (≈ 6.72 µM)
6 | Cc1ccc(S(=O)(=O)Nc2cnccc2C(=O)Nc2nc(-c3ccc(Oc4ccccc4)cc3)cs2)cc1 | 0.918 (≈ 1.69 µM)
7 | CCOC(=O)N1CCc2c(sc(NCc3sccc3C)c2C(=O)Nc2cc(Cl)ccc2OC)C1 | < 1
8 | O=C(O)Cn1c(C(=O)Nc2nc(-c3ccccc3Cl)cs2)cc2ccccc21 | > 61
9 | COc1ccc(C(=O)c2sc(Nc3cccc(Cl)c3)nc2N)cc1 | < 1
10 | CCCn1cnc2cc(NCc3ccc(OC)cc3OC)ccc21 | 40.3 (≈ 124 µM)
11 | Cc1noc([C@@H]2CN(C(=O)c3nn(C)c4ccccc34)C[C@H]2CO)n1 | > 100
12 | COc1ccc(-c2ccc3nc(-c4ccc(SC)cc4)oc3c2)c(OC)c1OC | < 1
13 | O=C(c1ccco1)N1CCN(c2nc(-c3ccc(Br)cc3)cs2)CC1 | 2.3 (≈ 5.5 µM)
14 | CC(=O)Nc1ccc(C(=O)Nc2ccc3c(c2)N(C2CCCC2)C(=O)c2ccccc2S3)cc1 | < 1
15 | CN(C)CCN1C(=O)c2cccc3cc(N)cc(c23)C1=O | > 42
16 | N[C@@H](Cc1cc(Br)c(O)c(Br)c1)C(=O)O | > 50
17 | O=C1CCCC2=C1C1(CCCC1)N=C(Nc1nc3cc(Br)ccc3o1)N2 | < 1
18 | COC(=O)c1ccc(NS(=O)(=O)c2c(C)nc3sccn3c2=O)cc1 | > 56
19 | C[C@]12CC[C@@H]3[C@H](CCC4=CC(=O)CC[C@]43C)[C@]1(O)CC[C@@]2(O)C(=O)CO | > 54
20 | Cc1ccccc1OCC(O)CO (centres undefined) | > 27
21 | NC(=O)C1CCN(c2nc(-c3ccc4c(c3)OCCCO4)cs2)CC1 | 34.7 (≈ 96.4 µM)
22 | Cc1cc(C)nc(NC(=S)N2CCN(c3cccc([N+](=O)[O-])c3)CC2)c1 | 4.04 (≈ 10.9 µM)
23 | COc1ccc(S(=O)(=O)N(CC(=O)Nc2ccc(C)cc2)c2ccc(C)cc2)cc1OC | < 1
24 | O=C1c2ccccc2C2=Nc3ccccc3SC(c3ccc(Cl)cc3)C12 (centres undefined) | < 1
25 | Cc1cccc(-c2csc(N3CCC(C(N)=O)CC3)n2)c1 | > 45

Row | SMILES | solubility kinetic [µg/mL]
26 | Cc1ccnc(NC(=S)N2CCN(c3ccc(Cl)cc3Cl)CC2)c1 | 2.28 (≈ 5.97 µM)
27 | CCN(CC)CCCC(C)Nc1cc(/C=C/c2ccccc2Cl)nc2cc(Cl)ccc12 (centres undefined) | 25.4 (≈ 55.7 µM)
28 | Cc1ccc(NS(=O)(=O)c2cccc(C(=O)Nc3nc(-c4ccccc4)cs3)c2)cc1 | < 1
29 | O=C(Nc1ccccc1-c1cn2c(CN3CCNCC3)csc2n1)c1cnc2ccccc2n1 | 4.56 (≈ 9.71 µM)
30 | COC(=O)CSc1nc(-c2ccccc2)cc(-c2ccco2)c1C#N | < 1
31 | CSc1ccccc1-c1ccc(Nc2nc(-c3ccncc3)nc3ccccc23)cc1F | < 1
32 | Cc1ccc(-c2csc(NC(=O)c3ccncc3NS(=O)(=O)c3ccc(C)cc3)n2)cc1 | < 1
33 | CN(C)c1cccc(-c2nnc(N3CCC(C(N)=O)CC3)s2)c1 | > 49
34 | COc1ccc(C(=O)N2CCC3(CC2)CN(c2cccc(-c4ccccc4)c2)C3)cc1 | < 1
35 | COc1ccc(CCN2CCC(Nc3nc4ccccc4n3Cc3ccc(F)cc3)CC2)cc1 | 54.6 (≈ 119 µM)
36 | O=C(Nc1nc(-c2ccc(Cl)s2)cs1)c1cccs1 | < 1
37 | Cc1ccnc(NC(=S)N2CCN(c3cccc(C(F)(F)F)n3)CC2)c1 | 3.88 (≈ 10.2 µM)
38 | O=C(Nc1ccccc1O)c1ccc(NC(=O)C2CC2)cc1 | 1.75 (≈ 5.92 µM)
39 | COc1ccc(C2CC(=O)Nc3nc(N)sc32)cc1OC (centres undefined) | 30.5 (≈ 99.8 µM)
40 | Cc1ccc(-c2ccc(CNc3nc(-c4ccccc4C(C)C)nc4ccccc34)cc2)cn1 | < 1
41 | O=C1Nc2ccccc2/C1=C/c1cccc(C(=O)O)c1 | > 39
42 | Cc1ccc(-c2cc(C(=O)Nc3cccc(S(=O)(=O)Nc4nccs4)c3)c3ccccc3n2)cc1C | < 1
43 | Cc1ccc(S(=O)(=O)n2cc(C(=O)Nc3nc(-c4ccccc4)cs3)c3ccccc32)cc1 | 2.2 (≈ 4.65 µM)
44 | C[S+](=O)([O-])c1ccc(-c2nc(C(=O)NCc3cccnc3)n3ccccc23)cc1 | 11.4 (≈ 27.9 µM)
45 | Cc1ccc(S(=O)(=O)Nc2cnccc2C(=O)Nc2nc(-c3cccnc3)cs2)cc1 | > 67
46 | CN(C)CCNC(=O)c1nc2nc(-c3ccccc3)c(-c3cccc(Cl)c3)cc2n1C | 66.8 (≈ 154 µM)
47 | Cc1cc(C)c2nc(-c3ccccn3)cc(C(=O)Nc3ccc(S(=O)(=O)Nc4onc(C)c4C)cc3)c2c1 | 12 (≈ 22.7 µM)
48 | Cc1cccc(-n2cnc3cc(C(=O)N4CCC(Br)CC4)ccc32)c1 | 35.2 (≈ 88.3 µM)
49 | O=S(=O)(Nc1nccs1)c1ccc(NCc2ccccc2O)cc1 | > 53
